Assay: Binding energy by using the equation deltaG obsd = -RT ln KD
Type: ADME

Q: For `OC1(c2ccc(Cl)c(C(F)(F)F)c2)CCN(CCCC(c2ccc(F)cc2)c2ccc(F)cc2)CC1` [PENFLURIDOL], which Binding energy is on record?
A: The Binding energy was 9.9 kcal/mol.

Q: With `NCCc1ccccc1` [PHENETHYLAMINE] as the compound, how does the Binding energy read?
A: The Binding energy was 5.5 kcal/mol.

Q: With `Oc1ccccc1` [PHENOL] as the compound, how does the Binding energy read?
A: The Binding energy was 2.7 kcal/mol.

Q: For `Cc1ccc(N(CC2=NCCN2)c2cccc(O)c2)cc1` [PHENTOLAMINE], which Binding energy is on record?
A: The Binding energy was 11.9 kcal/mol.

Q: With `O=C(O)CCc1ccccc1` [PHENYL PROPIONIC ACID] as the compound, how does the Binding energy read?
A: The Binding energy was 5.5 kcal/mol.

Q: Which Binding energy does the source give for `CCCCC1C(=O)N(c2ccccc2)N(c2ccccc2)C1=O` [PHENYLBUTAZONE] here?
A: Its Binding energy is 7.3 kcal/mol.

Q: Which Binding energy does the source give for `O=C1NC(=O)C(c2ccccc2)(c2ccccc2)N1` [PHENYTOIN] here?
A: The Binding energy was 11.2 kcal/mol.

Q: With `O=C(O)COP(=O)(O)O` [PHOSPHOGLYCOLIC ACID] as the compound, how does the Binding energy read?
A: The Binding energy was 8.7 kcal/mol.

Q: Which Binding energy does the source give for `O=P(O)(O)O` [PHOSPHORIC ACID] here?
A: The Binding energy was 7.7 kcal/mol.

Q: With `C=C(C)[C@@H]1[C@H]2OC(=O)[C@@H]1[C@]1(O)C[C@H]3O[C@]34C(=O)O[C@H]2[C@]14C` [PICROTOXININ] as the compound, how does the Binding energy read?
A: Its Binding energy is 8.7 kcal/mol.

Q: With `CC[C@@H]1C(=O)OC[C@@H]1Cc1cncn1C` [PILOCARPINE] as the compound, how does the Binding energy read?
A: The Binding energy was 10.1 kcal/mol.

Q: For `O=c1[nH]c2ccccc2n1C1CCN(CCCC(c2ccc(F)cc2)c2ccc(F)cc2)CC1` [PIMOZIDE], which Binding energy is on record?
A: The Binding energy was 12.8 kcal/mol.

Q: With `NC(=O)C1(N2CCCCC2)CCN(CCCC(=O)c2ccc(F)cc2)CC1` [PIPAMPERONE] as the compound, how does the Binding energy read?
A: The Binding energy was 12.4 kcal/mol.

Q: Which Binding energy does the source give for `c1ccc2c(c1)OCC(CN1CCCCC1)O2` (stereo unspecified) [PIPEROXAN] here?
A: Its Binding energy is 10.7 kcal/mol.

Q: With `CN1CCC(=C2c3ccccc3CCc3sccc32)CC1` [PIZOTYLINE] as the compound, how does the Binding energy read?
A: The Binding energy was 13 kcal/mol.

Q: With `COc1cc2nc(N3CCN(C(=O)c4ccco4)CC3)nc(N)c2cc1OC` [PRAZOSIN] as the compound, how does the Binding energy read?
A: The Binding energy was 13.1 kcal/mol.

Q: For `CC(Cc1ccccc1)NCCC(c1ccccc1)c1ccccc1` (stereo unspecified) [PRENYLAMINE], which Binding energy is on record?
A: The Binding energy was 8.2 kcal/mol.

Q: With `CC(=O)[C@H]1CC[C@H]2[C@@H]3CCC4=CC(=O)CC[C@]4(C)[C@H]3CC[C@]12C` [PROGESTERONE] as the compound, how does the Binding energy read?
A: Its Binding energy is 10.5 kcal/mol.

Q: For `CC(C)NCC(O)COc1cccc2ccccc12` (stereo unspecified) [PROPRANOLOL], which Binding energy is on record?
A: Its Binding energy is 12.8 kcal/mol.

Q: Which Binding energy does the source give for `CNCCCC1c2ccccc2C=Cc2ccccc21` [PROTRIPTYLINE] here?
A: The Binding energy was 10.8 kcal/mol.

Q: Which Binding energy does the source give for `COc1ccc(CN(CCN(C)C)c2ccccn2)cc1` [PYRILAMINE] here?
A: Its Binding energy is 12.7 kcal/mol.

Q: Which Binding energy does the source give for `CCc1nc(N)nc(N)c1-c1ccc(Cl)cc1` [PYRIMETHAMINE] here?
A: The Binding energy was 9.7 kcal/mol.

Q: For `CC(CN1CCOCC1)C(C(=O)N1CCCC1)(c1ccccc1)c1ccccc1` (stereo not drawn) [RACEMORAMIDE], which Binding energy is on record?
A: Its Binding energy is 12.3 kcal/mol.

Q: With `CN1[C@@H]2C[C@@H](OC(=O)[C@H](CO)c3ccccc3)C[C@H]1[C@@H]1O[C@@H]12` [SCOPOLAMINE] as the compound, how does the Binding energy read?
A: The Binding energy was 12.9 kcal/mol.

Q: For `NCCc1c[nH]c2ccc(O)cc12` [SEROTONIN], which Binding energy is on record?
A: The Binding energy was 8.9 kcal/mol.

Q: With `O=C(CCCN1CCC2(CC1)C(=O)NCN2c1ccccc1)c1ccc(F)cc1` [SPIPERONE] as the compound, how does the Binding energy read?
A: The Binding energy was 14 kcal/mol.

Q: With `CC/C(=C(\c1ccccc1)c1ccc(OCCN(C)C)cc1)c1ccccc1` [TAMOXIFEN] as the compound, how does the Binding energy read?
A: Its Binding energy is 12.3 kcal/mol.

Q: For `C[N+](C)(C)C` [TETRAMETHYLAMMONIUM ION], which Binding energy is on record?
A: The Binding energy was 3.6 kcal/mol.

Q: Which Binding energy does the source give for `CSc1ccc2c(c1)N(CCC1CCCCN1C)c1ccccc1S2` (stereo unspecified) [THIORIDAZINE] here?
A: The Binding energy was 11 kcal/mol.

Q: With `Cc1csc(Cl)c1NC1=NCCN1` [TIAMENIDINE] as the compound, how does the Binding energy read?
A: Its Binding energy is 11.8 kcal/mol.

Q: Which Binding energy does the source give for `CC(C)(C)NC[C@H](O)COc1nsnc1N1CCOCC1` [TIMOLOL] here?
A: The Binding energy was 13 kcal/mol.

Q: For `O=C(O)Cc1cc(I)c(Oc2ccc(O)c(I)c2)c(I)c1` [TIRATRICOL], which Binding energy is on record?
A: Its Binding energy is 9.3 kcal/mol.

Q: Which Binding energy does the source give for `COc1cc(Cc2cnc(N)nc2N)cc(OC)c1OC` [TRIMETHOPRIM] here?
A: Its Binding energy is 11.5 kcal/mol.

Q: Which Binding energy does the source give for `Cc1ccc(/C(=C\CN2CCCC2)c2ccccn2)cc1` [TRIPROLIDINE] here?
A: The Binding energy was 13.6 kcal/mol.

Q: For `NCCc1c[nH]c2ccccc12` [TRYPTAMINE], which Binding energy is on record?
A: Its Binding energy is 7.9 kcal/mol.

Q: Which Binding energy does the source give for `CCCC(CCC)C(=O)O` [VALPROIC ACID] here?
A: The Binding energy was 6.1 kcal/mol.

Q: For `CC(=O)CC(c1ccccc1)c1c(O)c2ccccc2oc1=O` (stereo unspecified) [WARFARIN], which Binding energy is on record?
A: The Binding energy was 6.9 kcal/mol.

Q: Which Binding energy does the source give for `Cc1cccc(C)c1N=C1NCCCS1` [XYLAZINE] here?
A: The Binding energy was 11.3 kcal/mol.

Q: Which Binding energy does the source give for `COC(=O)[C@@H]1[C@H]2C[C@H]3c4[nH]c5ccccc5c4CCN3C[C@@H]2CC[C@@H]1O` [YOHIMBINE] here?
A: Its Binding energy is 11.9 kcal/mol.

Q: Which Binding energy does the source give for BIBROCATHOL here?
A: Its Binding energy is 10.7 kcal/mol.

Q: With FLUPENTIXOL as the compound, how does the Binding energy read?
A: Its Binding energy is 11.5 kcal/mol.

From ChEMBL document CHEMBL1122538, “Functional group contributions to drug-receptor interactions” (J Med Chem, 1984)
